{"source": "patent US5866570A", "about": "“Treatment of vascular leakage and related syndrome such as septic shock by administration of metalloproteinase inhibitors” (Wisconsin Alumni Research Foundation, priority 1994, dated 1999)", "key": {"[1]": {"conditions": "at 25° C.; cited from earlier work"}, "[2]": {"tested_on": "LS-MET-5 human colon carcinoma cells", "test": "LS-MET-5 i.v. human colon carcinoma metastasis model in nude mice", "assay_type": "in vivo", "experimental": "This example evaluates the effect of probimane on the survival of mice which have been injected with LS-MET-5 human colon carcinoma cells. In particular, probimane was given at 26 mg/kg in CMC, 1 intraperitoneal dose/day starting 1 day prior to intravenous injection of 1 million LS-MET-5 human colon carcinoma cells, at either 3 or 5 doses per week. During the first week the treated mice experienced a small weight drop and the dosage was decreased to 10.4 mg/kg. The control mice received CMC only at 10 μl/g.\nDose and Schedule--was suspended in sterile 1% CMC (carboxymethyl cellulose) […] by sonication in a water bath. […] Mice received drug 24 hours prior to injection of cells and each mouse received one dose/day i.p. for 5 consecutive days with 2 days of recovery or 3 consecutive days with 4 days of recovery. Treatment continued until mouse death or sacrifice.\nLS-MET-5--human colon carcinoma metastatic variant cell line was developed at Oncologix, Inc. The cells are maintained in culture in DMEM+10% FBS and are dissociated for injection with trypsin/versine. The cells are resuspended in HBSS and 1 million cells injected in 100 μl into the lateral tail vein of the mouse.\nMice--HSD nu/nu female mice 6 weeks old (18-22 g) are weighed, tagged with a metal ear clip, and radomized for treatment or control groups. Mice are weighed daily and the dose of drug or vehicle is calculated.\nSuperficial metastases in the regional lymph nodes, dorsal thoracic brown fact pad, thigh muscle and on the rib cage begin appearing around day 22. Tumor growth is rapid with small metastases quickly coalescing to form a solid collar of metastases around the neck region of the mouse.\nAlthough we have improved the incidence of mice with metastases by eliminating mice with less than perfect initial i.v. injections, we are still only 90% incidence. The experiment is terminated when the last mouse with evidence of metastases dies. The remaining mice are necropsied for presence of micro-metastases. We have found evidence that cells were indeed injected iv."}, "[3]": {"tested_on": "Lewis lung LL carcinoma", "conditions": "cited from earlier work"}, "[4]": {"tested_on": "mouse L cell", "conditions": "l cells; read-out: ID50 inhibition of colony formation; cited from earlier work"}, "[5]": {"tested_on": "mouse-embryo fibroblasts", "conditions": "cited from earlier work"}, "[6]": {"target": "T1, recombinant human 72 kD type IV collagenase (Oncologix), APMA activated (Homo sapiens, UniProt P08253)", "T1 construct": "purchased Oncologix", "T1 sequence (P08253 110-660)": "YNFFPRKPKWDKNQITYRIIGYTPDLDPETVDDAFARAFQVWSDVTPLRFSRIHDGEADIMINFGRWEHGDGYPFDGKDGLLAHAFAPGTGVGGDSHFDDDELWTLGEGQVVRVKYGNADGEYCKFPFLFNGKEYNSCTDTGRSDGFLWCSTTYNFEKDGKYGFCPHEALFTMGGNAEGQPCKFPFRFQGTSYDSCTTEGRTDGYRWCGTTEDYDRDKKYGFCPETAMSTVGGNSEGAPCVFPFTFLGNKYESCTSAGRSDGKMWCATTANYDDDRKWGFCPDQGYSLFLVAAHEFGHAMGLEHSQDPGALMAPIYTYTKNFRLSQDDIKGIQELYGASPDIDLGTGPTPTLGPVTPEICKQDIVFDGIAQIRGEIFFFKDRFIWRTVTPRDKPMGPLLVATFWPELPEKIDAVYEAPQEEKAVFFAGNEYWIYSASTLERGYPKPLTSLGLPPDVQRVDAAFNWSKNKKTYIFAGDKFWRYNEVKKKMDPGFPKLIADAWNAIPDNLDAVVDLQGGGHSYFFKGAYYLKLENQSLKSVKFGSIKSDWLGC", "test": "gelatinase assay, Example 11", "assay_type": "biochemical", "conditions": "10 ng enzyme, 2 hours preincubation at 37° C., 20 min assay, 3H collagen substrate; read-out: IC50 for inhibition of the 72 kD collagenase type IV", "experimental": "NET-660 Collagen (Rat Type I), N-[Propionate-2-3-^3 H] Propionylated (NEN Dupont) with a specific activity of 0.4 mCi/mg, rat type I Collagen (Sigma), P-aminophenylmercuric acetate, APMA (Sigma), recombinant human 72 kD type IV collagenase (Oncologix) with a specific activity of at least 1000 μg collagen digested/hour/μg enzyme, collagenase buffer (50 mM Tris-HCl, 5 mM CaCl2, 200 mM NaCl, 0.02% Brij-35, pH 7.6), bovine serum albumin (BSA), 250 mM EDTA, and 10% TCA+0.7% tannic acid. The substrate is prepared by mixing the ^3 H collagen with the cold collagen at a 2/3 ratio and diluting in the collagenase buffer. The final assay concentration of the ^3 H collagen is 1% or between 20,000 to 40,000 cpm. Inhibitors are prepared just prior to use by dissolving in DMSO (final assay concentration<1%) or collagenase buffer.\nThe 72 kD collagenase enzyme is activated with 0.5 mM APMA for 30 min. at 37° C. and 10 ng of enzyme per assay is used. Inhibitors are preincubated with activated enzyme for 2 hours at 37° C. in collagenase buffer. Substrate is then added to enzyme inhibitor mix and the assay is run for 20 min at 37° C. […] Undigested substrate is precipitated with the TCA/tannic acid solution and soluble counts are determined in a scintillation counter."}, "[7]": {"tested_on": "S180 tumors", "conditions": "therapeutic index in vivo; cited from earlier work"}, "[8]": {"conditions": "postamputation schedule LL model"}}, "note": "Where “and” joins values, the source holds several entries; their conditions need not be identical. Equal values may be shown once. Read-outs that look alike come from different tables or passages of the source."}
{"smiles": "O=C1CN([C@@H]2C[C@@H](O)[C@@H](O)C[C@@H]2N2CC(=O)NC(=O)C2)CC(=O)N1", "note": "[Compound 89, (1β, 2β, 4α, 5α)-4,4'-(4,5-dihydroxy-1,2-cyclohexanediyl)bis(2,6-piperazinedione)]", "values": [{"measurement": "solubility in water", "setting": "[1]", "result": 29.3, "unit": "mg/mL"}]}
{"smiles": "CC(CN1CC(=O)N(CN2CCOCC2)C(=O)C1)N1CC(=O)N(CN2CCOCC2)C(=O)C1", "note": "(centres unmarked) [Probimane, probimane]", "values": [{"measurement": "toxicity (body weight)", "setting": "[2]; 26 mg/Kg i.p. during the first week", "result": "weight drop indicated toxicity"}, {"measurement": "Mean IST", "setting": "[2]; 3×/Week", "result": 19, "unit": "%"}, {"measurement": "Mean Survival", "setting": "[2]; 3×/Week", "result": 52}, {"measurement": "Median IST", "setting": "[2]; 3×/Week", "result": 18, "unit": "%"}, {"measurement": "Median Survival", "setting": "[2]; 3×/Week", "result": 47}, {"measurement": "Day of Death", "setting": "[2]; 3×/Week, 26 then 10.4 mg/kg i.p., single mice", "result": "43 and 44 and 45 and 46 and 52 and 62 and 63"}, {"measurement": "Mean IST", "setting": "[2]; 5×/Week", "result": 16, "unit": "%"}, {"measurement": "Mean Survival", "setting": "[2]; 5×/Week", "result": 50}, {"measurement": "Median IST", "setting": "[2]; 5×/Week", "result": 18, "unit": "%"}, {"measurement": "Median Survival", "setting": "[2]; 5×/Week", "result": 47}, {"measurement": "Incidence of superficial metastases", "setting": "[2]; Day 29, 3×/Week", "result": "7/11"}, {"measurement": "superficial Mets/Mouse", "setting": "[2]; Day 29, 3×/Week", "result": 1.1}, {"measurement": "Incidence of superficial metastases", "setting": "[2]; Day 29, 5×/Week", "result": "5/11"}, {"measurement": "superficial Mets/Mouse", "setting": "[2]; Day 29, 5×/Week", "result": 1.2}, {"measurement": "Incidence of superficial metastases", "setting": "[2]; Day 30, 3×/Week", "result": "7/11"}, {"measurement": "superficial Mets/Mouse", "setting": "[2]; Day 30, 3×/Week", "result": 1.9}, {"measurement": "Incidence of superficial metastases", "setting": "[2]; Day 30, 5×/Week", "result": "10/11"}, {"measurement": "superficial Mets/Mouse", "setting": "[2]; Day 30, 5×/Week", "result": 1.2}, {"measurement": "Incidence of superficial metastases", "setting": "[2]; Day 31, 3×/Week", "result": "7/11"}, {"measurement": "superficial Mets/Mouse", "setting": "[2]; Day 31, 3×/Week", "result": 1.9}, {"measurement": "Incidence of superficial metastases", "setting": "[2]; Day 31, 5×/Week", "result": "11/11"}, {"measurement": "superficial Mets/Mouse", "setting": "[2]; Day 31, 5×/Week", "result": 1.1}, {"measurement": "Incidence of superficial metastases", "setting": "[2]; Day 32, 3×/Week", "result": "7/11"}, {"measurement": "superficial Mets/Mouse", "setting": "[2]; Day 32, 3×/Week", "result": 1.9}, {"measurement": "Incidence of superficial metastases", "setting": "[2]; Day 32, 5×/Week", "result": "11/11"}, {"measurement": "superficial Mets/Mouse", "setting": "[2]; Day 32, 5×/Week", "result": 1.8}, {"measurement": "condition of the treated mice", "setting": "[2]; mouse, in vivo", "result": "pale and grayish in color, with scruffy coats, and were cold to the touch"}]}
{"smiles": "O=C1CN2C[C@H]3C(=O)NC(=O)CN3C[C@@H]2C(=O)N1", "note": "[Compound 22]", "values": [{"measurement": "antimetastatic effect", "setting": "[3]; implanted LL carcinoma", "result": "no antimetastatic effects"}]}
{"smiles": "O=C1CN2CCN3CC(=O)N(CN4CCOCC4)C(=O)[C@H]3[C@@H]2C(=O)N1CN1CCOCC1", "note": "(relative stereo)", "values": [{"measurement": "antimetastatic effect", "setting": "[3]; [8]", "result": "considerable antimetastatic activity"}]}
{"smiles": "O=C1CN2C[C@@H]3C(=O)N(CN4CCOCC4)C(=O)CN3C[C@@H]2C(=O)N1CN1CCOCC1", "note": "(relative stereo) [morpholinomethyl derivative of cis-23]", "values": [{"measurement": "antimetastatic effect", "setting": "[3]; implanted LL carcinoma", "result": "inhibits metastasis"}]}
{"smiles": "O=C1CN2CCN3CC(=O)N(CN4CCOCC4)C(=O)[C@H]3[C@H]2C(=O)N1CN1CCOCC1", "values": [{"measurement": "antimetastatic effect", "setting": "[3]; [8]", "result": "most effective inhibitor of metastasis"}]}
{"smiles": "CCC(CN1CC(=O)NC(=O)C1)N1CC(=O)NC(=O)C1", "note": "(centres unmarked) [ICRF-192]", "values": [{"measurement": "IC50", "setting": "[4]", "result": 720, "unit": "µM"}]}
{"smiles": "O=C1CN(CCCN2CC(=O)NC(=O)C2)CC(=O)N1", "note": "[ICRF-161]", "values": [{"measurement": "IC50, inhibition of [3H]thymidine incorporation", "setting": "[5]", "result": "inactive"}]}
{"smiles": "O=C1CN(CCN2CC(=O)NC(=O)C2)CC(=O)N1", "note": "[ICRF-154]", "values": [{"measurement": "IC50", "setting": "[4]", "result": 7.3, "unit": "µM"}, {"measurement": "IC50, inhibition of [3H]thymidine incorporation", "setting": "[5]", "result": 2.0, "unit": "µg/mL"}]}
{"smiles": "O=C(O)CN(CCN(CC(=O)O)CC(=O)O)CC(=O)O", "note": "[EDTA, ethylenediaminetetraacetic acid]", "values": [{"measurement": "IC50", "setting": "[6]", "result": 300, "unit": "µM"}]}
{"smiles": "O=C1CN2C[C@@H]3C(=O)NC(=O)CN3C[C@@H]2C(=O)N1", "note": "(relative stereo) [Compound 23]", "values": [{"measurement": "antimetastatic effect", "setting": "[3]; implanted LL carcinoma", "result": "no antimetastatic effects"}, {"measurement": "antimetastatic effect", "setting": "[3]; implanted LL carcinoma, listed as cis-23", "result": "does not exhibit any appreciable antimetastatic effect"}]}
{"smiles": "CC(C(C)N1CC(=O)NC(=O)C1)N1CC(=O)NC(=O)C1", "note": "(centres unmarked) [ICRF-193]", "values": [{"measurement": "calculated ratio of maximum tolerated dose to the dose required for 90% inhibition of S180 tumor growth", "setting": "[7]", "result": 6.7}, {"measurement": "IC50", "setting": "[4]", "result": 0.09, "unit": "µM"}, {"measurement": "IC50, inhibition of [3H]thymidine incorporation", "setting": "[5]", "result": 0.035, "unit": "µg/mL"}]}
{"smiles": "CC(C(C)N1CC(=O)NC(=O)C1)N1CC(=O)NC(=O)C1", "note": "(centres unmarked) [ICRF-196]", "values": [{"measurement": "IC50", "setting": "[4]", "result": 150, "unit": "µM"}, {"measurement": "IC50, inhibition of [3H]thymidine incorporation", "setting": "[5]", "result": "inactive"}]}
